{"source": "ChEMBL document CHEMBL1125120", "about": "“Synthesis and anticonvulsant and sedative-hypnotic activity of 4-(alkylimino)-2,3-dihydro-4H-1-benzopyrans and -benzothiopyrans” (J Med Chem, 1990)", "note": "Activity calls are given as the source filed them. No cut-off for these calls is given here."}
{"system": "Mus musculus", "experiment": "Ability to inhibit seizures induced by mercaptopropionic acid in mice administered per orally; i = inactive", "assay_type": "functional, organism-based", "details": "not given"}
{"smiles": "CCCCCc1cc(O)c2c(c1)OC(C)(C)C/C2=N\\CCO", "ED50": "inactive"}
{"smiles": "CCCCc1cc(O)c2c(c1)OC(C)(C)C[C@H]2NCC(C)O", "note": "(stereo not given in full)", "ED50": "inactive"}
{"smiles": "CCCCCc1cc(O)c2c(c1)SC(C)(C)C/C2=N\\CCO", "ED50": "inactive"}
{"smiles": "CCCCCc1cc(O)c2c(c1)OC(C)(C)C/C2=N\\CC(C)O", "note": "(stereo not given)", "ED50": "inactive"}
{"system": "Rattus norvegicus", "experiment": "Ability to potentiate pentobarbital-induced sleep administered per orally", "assay_type": "functional", "details": "po", "units": {"ED50": "mg/kg"}}
{"smiles": "CCCCc1cc(O)c2c(c1)OC(C)(C)C[C@H]2NCC(C)O", "note": "(stereo not given in full)", "ED50": 14.2}
{"smiles": "CCCCCc1cc(O)c2c(c1)SC(C)(C)C[C@H]2NCC(C)O", "note": "(stereo not given in full)", "ED50": 9.7}
{"smiles": "CCCCCc1cc(O)c2c(c1)SC(C)(C)C/C2=N\\CC(C)O", "note": "(stereo not given)", "ED50": 10}
{"system": "Mus musculus", "experiment": "(§1) Acute toxicity administered per orally", "assay_type": "functional", "details": "po", "units": {"LD50": "mg/kg"}}
{"smiles": "CCCCCc1cc(O)c2c(c1)SC(C)(C)C/C2=N\\CCO", "LD50": "> 800"}
{"system": "Rattus norvegicus", "experiment": "Ability to potentiate pentobarbital-induced sleep administered per orally; i = inactive", "assay_type": "functional, organism-based", "details": "not given"}
{"smiles": "CCCCCc1cc(O)c2c(c1)OC(C)(C)C/C2=N\\CCO", "ED50": "inactive"}
{"smiles": "CCCCCc1cc(O)c2c(c1)SC(C)(C)C/C2=N\\CCO", "ED50": "inactive"}
{"smiles": "CCCCCc1cc(O)c2c(c1)OC(C)(C)C/C2=N\\C[C@@H](C)O", "ED50": "inactive"}
{"smiles": "CCCCCc1cc(O)c2c(c1)OC(C)(C)C/C2=N\\CC(C)O", "note": "(stereo not given)", "ED50": "inactive"}
{"system": "Mus musculus", "experiment": "Ability to inhibit seizures induced by pentylenetetrazole in mice administered per orally", "assay_type": "functional", "details": "po", "units": {"ED50": "mg/kg"}}
{"smiles": "CCCCCc1cc(O)c2c(c1)OC(C)(C)C/C2=N\\CCO", "ED50": 19}
{"smiles": "CCCCc1cc(O)c2c(c1)OC(C)(C)C[C@H]2NCC(C)O", "note": "(stereo not given in full)", "ED50": 15.5}
{"smiles": "CCCCCc1cc(O)c2c(c1)SC(C)(C)C/C2=N\\CCO", "ED50": 24}
{"smiles": "CCCCCc1cc(O)c2c(c1)OC(C)(C)C/C2=N\\C[C@@H](C)O", "ED50": 14}
{"smiles": "CCCCCc1cc(O)c2c(c1)OC(C)(C)C/C2=N\\CC(C)O", "note": "(stereo not given)", "ED50": 24.3}
{"smiles": "CCCCCc1cc(O)c2c(c1)SC(C)(C)C[C@H]2NCC(C)O", "note": "(stereo not given in full)", "ED50": 4.8}
{"smiles": "CCCC(CCC)C(=O)[O-].[Na+]", "note": "[VALPROATE SODIUM]", "ED50": 200}
{"smiles": "CCCCCc1cc(O)c2c(c1)SC(C)(C)C/C2=N\\CC(C)O", "note": "(stereo not given)", "ED50": 14.3}
{"smiles": "CN1C(=O)CN=C(c2ccccc2)c2cc(Cl)ccc21", "note": "[DIAZEPAM]", "ED50": 0.5}
{"system": "Mus musculus", "experiment": "Ability to inhibit seizures induced by electroshock in mice administered per orally; i = inactive", "assay_type": "functional, organism-based", "details": "not given"}
{"smiles": "CCCCCc1cc(O)c2c(c1)OC(C)(C)C/C2=N\\CCO", "ED50": "inactive"}
{"smiles": "CCCCc1cc(O)c2c(c1)OC(C)(C)C[C@H]2NCC(C)O", "note": "(stereo not given in full)", "ED50": "inactive"}
{"smiles": "CCCCCc1cc(O)c2c(c1)SC(C)(C)C/C2=N\\CCO", "ED50": "inactive"}
{"smiles": "CCCCCc1cc(O)c2c(c1)OC(C)(C)C/C2=N\\CC(C)O", "note": "(stereo not given)", "ED50": "inactive"}
{"smiles": "CCCCCc1cc(O)c2c(c1)SC(C)(C)C/C2=N\\CC(C)O", "note": "(stereo not given)", "ED50": "inactive"}
{"system": "Mus musculus", "experiment": "Ability to inhibit seizures induced by electroshock in mice administered per orally", "assay_type": "functional", "details": "po", "units": {"ED50": "mg/kg"}}
{"smiles": "CCCCCc1cc(O)c2c(c1)OC(C)(C)C/C2=N\\C[C@@H](C)O", "ED50": 13.8}
{"smiles": "CCCCCc1cc(O)c2c(c1)SC(C)(C)C[C@H]2NCC(C)O", "note": "(stereo not given in full)", "ED50": 20.6}
{"smiles": "CCCC(CCC)C(=O)[O-].[Na+]", "note": "[VALPROATE SODIUM]", "ED50": 206}
{"smiles": "CN1C(=O)CN=C(c2ccccc2)c2cc(Cl)ccc21", "note": "[DIAZEPAM]", "ED50": 1.2}
{"system": "Mus musculus", "experiment": "Ability to inhibit seizures induced by mercaptopropionic acid in mice administered per orally", "assay_type": "functional", "details": "po", "units": {"ED50": "mg/kg"}}
{"smiles": "CCCCCc1cc(O)c2c(c1)OC(C)(C)C/C2=N\\C[C@@H](C)O", "ED50": 9.4}
{"smiles": "CCCCCc1cc(O)c2c(c1)SC(C)(C)C[C@H]2NCC(C)O", "note": "(stereo not given in full)", "ED50": 8.8}
{"smiles": "CCCC(CCC)C(=O)[O-].[Na+]", "note": "[VALPROATE SODIUM]", "ED50": 200}
{"smiles": "CN1C(=O)CN=C(c2ccccc2)c2cc(Cl)ccc21", "note": "[DIAZEPAM]", "ED50": 0.7}
{"system": "not listed separately", "experiment": "as §1", "assay_type": "organism-based", "details": "mouse, in vivo, po", "units": {"LD50": "mg/kg"}}
{"smiles": "CCCCCc1cc(O)c2c(c1)OC(C)(C)C/C2=N\\CCO", "LD50": "> 800"}
{"smiles": "CCCCc1cc(O)c2c(c1)OC(C)(C)C[C@H]2NCC(C)O", "note": "(stereo not given in full)", "LD50": 800}
{"smiles": "CCCCCc1cc(O)c2c(c1)OC(C)(C)C/C2=N\\C[C@@H](C)O", "LD50": 800}
{"smiles": "CCCCCc1cc(O)c2c(c1)OC(C)(C)C/C2=N\\CC(C)O", "note": "(stereo not given)", "LD50": 800}
{"smiles": "CCCCCc1cc(O)c2c(c1)SC(C)(C)C[C@H]2NCC(C)O", "note": "(stereo not given in full)", "LD50": "> 1600"}
{"smiles": "CCCCCc1cc(O)c2c(c1)SC(C)(C)C/C2=N\\CC(C)O", "note": "(stereo not given)", "LD50": "> 800"}
